Laboratory results: patent US4921860A, “Quinuclidyl- and tropanyl-pyridyl ethers as 5-HT3 receptor antagonists” (John Wyeth and Brother, Limited, priority 1987, dated 1990)

Assays:
[1] = molecular target: T1, 5-HT3 receptors (Rattus norvegicus, UniProt P35563); experiment: 5-HT3 receptor antagonism in the isolated vagus nerve of the rat (5-HT induced depolarisation); type: cell-based; settings: isolated rat cervical vagus nerve; estimated from 5-HT concentration ratios; read-out: apparent pKB (KB is the antagonist dissociation constant) (converted)
T1 construct: tested for 5-HT3 receptor antagonism in the isolated vagus nerve of the rat; from tissue; host or cells: isolated cervical vagus nerve of the rat
T1 sequence (P35563 24-483): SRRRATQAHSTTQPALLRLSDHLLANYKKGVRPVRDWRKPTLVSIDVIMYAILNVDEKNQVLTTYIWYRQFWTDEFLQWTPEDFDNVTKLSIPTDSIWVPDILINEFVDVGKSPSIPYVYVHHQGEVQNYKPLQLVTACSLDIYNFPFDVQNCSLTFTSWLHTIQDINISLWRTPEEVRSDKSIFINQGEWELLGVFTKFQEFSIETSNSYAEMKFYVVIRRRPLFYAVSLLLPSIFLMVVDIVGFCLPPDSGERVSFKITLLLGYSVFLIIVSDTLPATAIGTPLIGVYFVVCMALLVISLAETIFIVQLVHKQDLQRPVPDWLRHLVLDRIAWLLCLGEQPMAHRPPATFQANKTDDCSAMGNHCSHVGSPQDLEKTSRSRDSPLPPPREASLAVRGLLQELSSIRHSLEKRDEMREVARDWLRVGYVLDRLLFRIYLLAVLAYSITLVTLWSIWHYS
Procedure: The pyridyl ethers are tested for 5-HT3 receptor antagonism in the isolated vagus nerve of the rat by a method based upon that of Ireland S. J. and Tyers M. B. Brit. J. Phamacol., 1987, 90, 229-238. The procedure relies upon the ability of 5-HT to induce depolaraisation of neurones in the cervical vagus nerve by a direct action of 5-HT3 receptors. A concentration response curve to 5-HT induced depolaraisation is obtained and the antagonists are added to the bath containing the isolated nerve before repeating the 5-HT concentration-response curve. Antagonist potency is estimated from the 5-HT concentration ratios and expressed as an apparent pKB value (where KB is the antagonist dissociation constant).

[2] = molecular target: T2, 5-HT3 receptors (Oryctolagus cuniculus, UniProt A0A5F9C9J3); experiment: 5-HT3 antagonistic activity in the isolated right atrium of the rabbit heart; type: cell-based; settings: 5-HT evoked increase in spontaneous rate, read-out: apparent PKB (converted)
T2 construct: 5-HT3 antagonistic activity in the isolated right atrium of the rabbit heart; from tissue; host or cells: isolated right atrium of the rabbit heart (sympathetic nerve terminals)
T2 sequence (A0A5F9C9J3 1-494): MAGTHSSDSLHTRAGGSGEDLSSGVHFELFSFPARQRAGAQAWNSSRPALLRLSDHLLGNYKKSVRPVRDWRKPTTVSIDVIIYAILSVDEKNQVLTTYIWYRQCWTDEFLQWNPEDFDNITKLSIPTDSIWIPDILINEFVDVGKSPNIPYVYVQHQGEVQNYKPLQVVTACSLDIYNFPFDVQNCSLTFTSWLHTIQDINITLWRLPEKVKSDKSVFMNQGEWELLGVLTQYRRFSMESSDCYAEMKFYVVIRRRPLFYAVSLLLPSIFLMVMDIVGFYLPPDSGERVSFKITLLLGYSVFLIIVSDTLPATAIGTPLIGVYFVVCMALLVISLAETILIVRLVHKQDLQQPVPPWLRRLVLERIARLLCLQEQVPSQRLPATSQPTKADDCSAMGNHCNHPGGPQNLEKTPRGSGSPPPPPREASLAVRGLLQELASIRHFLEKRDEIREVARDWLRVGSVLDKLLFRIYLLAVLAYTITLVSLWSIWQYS
Procedure: The compounds of the invention are also tested for 5-HT3 antagonistic activity in the isolated right atrium of the rabbit heart based upon the method of Fozard J. R., Naunyn-Schmiedeberg's Arch. Pharmacol., 1984, 326, 36-44. The procedures relies upon the ability of 5-HT to stimulate 5-HT3 receptors present on sympathetic nerve terminals in the heart, causing release of noradrenaline which evokes an increase in the spontaneous rate of […]. The antagonist potency is expressed in a similar manner to that of the preceding test method i.e. as an apparent PKB.

For `CN1[C@@H]2CC[C@H]1C[C@@H](Oc1ccccn1)C2` [Example 1, Endo 8 methyl-3-(2-pyridinyloxy)-8-azabicyclo[3.2.1]octane], the Kb [1] was 631 nM and the Kd [2] was 39.8 nM.
